Common to all, as to assay type: in vivo
Experiment [1] relates to Episyrphus balteatus larvae. The experiment is described as follows: Larvae treatment Episyrphus: kill of beneficial species larvae on Savoy cabbage. As for the experimental part:
(§1) Foliar treatment is carried out using compound (I-5) in a concentration of 75 g of active compound per hectare.
(§2) Drench treatment is carried out using compound (I-5) in a concentration of 10 mg of active compound per plant.
(§3) Foliar treatment with Karate Zeon CS100 as toxic control was carried out in a concentration of 12.5 g of active compound per hectare.
(§4) Beneficial species: Episyrphus balteatus larvae Pest: Myzus persicae
(§5) Per experiment, 3 repetitions with in each case 2 pot cages with in each case 5 larvae are carried out.
(§6) For the experiment, Savoy cabbage plants are grown in pots having a diameter of 14 cm, placed in a breeding cage and infested thoroughly with Myzus persicae.
(§7) After the spray coating has dried on, a quartz sand layer of a thickness of about 1 cm is applied to the soil in the pot, and the pot cage is put over the plant. In each case 5 Episyrphus larvae are then counted out, and in each case 5 specimen are added to the plants in the pot cage.
(§8) For each plant, at the beginning the Myzus persicae number is estimated at the appropriate points in time and the dead, dying and alive larvae are counted separately. All larvae, i.e. all larvae present on the plant and the surface of the quartz sand base, are counted.

In a further experiment the test system is Myzus persicae. The experiment is described as follows: Larvae treatment Episyrphus: infestation by Myzus persicae on Savoy cabbage. Particulars: Episyrphus larvae added. As for the experimental part:
as §1, §2, §3, §4, §5, §6, §7, §8

Another experiment concerns adult Orius laevigatus. The experiment is described as follows: Residual test with adult Orius laevigatus on bell-pepper leaves. The procedure: Foliar treatment is carried out using compound (I-5) in a concentration of 100 g of active compound per hectare.
Drench treatment is carried out using compound (I-5) in a concentration of 15 mg of active compound per plant.
Foliar treatment with Karate Zeon CS100 as toxic control was carried out in a concentration of 12.5 g of active compound per hectare. The active compound in its respective formulation is brought to the required concentration by dilution with water.
Bell-pepper plants cultivated in a greenhouse are treated with the respective active compound solutions. 1, 8, 16 and 23 days after the application, leaves are plucked from the test plants (5 samples per plot). The individual leaves are then mounted in test cages. 10 adult Orius laevigatus are added to each cage. The test cages are placed under controlled conditions in a climatized chamber. The kill of the insects is determined after 24, 48 and 72 hours of exposure.

The mark [2] stands for this setting: 5 days after application, drench 10 mg a.i./plant.
Where [3] appears, read: 5 days after application, foliar: (I-5) 75 g a.i./ha, Karate Zeon CS100 12.5 g a.i./ha.

Consider `O=C1C=C(N(Cc2ccc(Cl)nc2)CC(F)F)CO1` [compound (I-5), 4-{[(6-chloropyrid-3-yl)methyl](2,2-difluoroethyl)amino}furan-2(5H)-one], for which the “kill of Episyrphus balteatus larvae [% Abbott]” value in experiment [1] (0 days after application, drench 10 mg a.i./plant) was found to be 0%; in experiment [1] (0 days after application, foliar: (I-5) 75 g a.i./ha, Karate Zeon CS100 12.5 g a.i./ha), 0%; in experiment [1] (1 day after application, drench 10 mg a.i./plant), 10.3%; in experiment [1] (1 day after application, foliar: (I-5) 75 g a.i./ha, Karate Zeon CS100 12.5 g a.i./ha) it was 6.1%; in experiment [1] (3 days after application, drench 10 mg a.i./plant), 10.3%; in experiment [1] (3 days after application, foliar: (I-5) 75 g a.i./ha, Karate Zeon CS100 12.5 g a.i./ha), 9%. The “kill of Episyrphus balteatus larvae [% Abbott]” value in experiment [1] (setting [2]) and in experiment [1] (setting [3]) was 0% each time. In addition, the “Infestation by Myzus persicae (number per plant)” value came out at 23 number per plant in the experiment with Myzus persicae (setting [2]); 0 number per plant in the experiment on Myzus persicae (setting [3]); 394 number per plant in the experiment on Myzus persicae (prior to application (baseline), drench 10 mg a.i./plant); 375 number per plant with Myzus persicae (prior to application (baseline), foliar: (I-5) 75 g a.i./ha, Karate Zeon CS100 12.5 g a.i./ha). Further, the “Activity against adult Orius leavigatus on bell-pepper [% kill calculated according to Schneider-Orelli]” value is given as 36.3% with adult Orius laevigatus (leaves plucked 1 day after application, drench 15 mg a.i./plant); 100% with adult Orius laevigatus (leaves plucked 1 day after application, foliar: (I-5) 100 g a.i./ha, Karate Zeon CS100 12.5 g a.i./ha); 86.7% in the experiment with adult Orius laevigatus (leaves plucked 8 days after application, drench 15 mg a.i./plant); 98.1% in the experiment with adult Orius laevigatus (leaves plucked 8 days after application, foliar: (I-5) 100 g a.i./ha, Karate Zeon CS100 12.5 g a.i./ha); 72.3% in the experiment on adult Orius laevigatus (leaves plucked 16 days after application, drench 15 mg a.i./plant); 100% in the experiment on adult Orius laevigatus (leaves plucked 16 days after application, foliar: (I-5) 100 g a.i./ha, Karate Zeon CS100 12.5 g a.i./ha). The “Activity against adult Orius leavigatus on bell-pepper [% kill calculated according to Schneider-Orelli]” value in the experiment on adult Orius laevigatus (leaves plucked 23 days after application, drench 15 mg a.i./plant) is 92.1%; in the experiment with adult Orius laevigatus (leaves plucked 23 days after application, foliar: (I-5) 100 g a.i./ha, Karate Zeon CS100 12.5 g a.i./ha) it was 100%.
